Reference: ChEMBL document CHEMBL1949629, “Discovery of a second generation agonist of the orphan G-protein coupled receptor GPR119 with an improved profile” (Bioorg Med Chem Lett, 2012)
Values after ≈ are worked out from the molar mass of the structure shown. Values belong to the compound of their own block, whether it stands above or below them. Active and inactive are the calls of the source. The rule behind the calls is not given here.

Legend:
[1] = Solubility in 20% HPbetaCD after 24 hrs; assay type: physicochemical
[2] = Solubility in 40% HPbetaCD after 24 hrs; assay type: physicochemical
Cytochrome P450 2C9 = Cytochrome P450 2C9 (Homo sapiens, UniProt P11712); test: Inhibition of CYP2C9; assay type: ADME
[3] = Cmax in Sprague-Dawley rat at 10 mg/kg, po; assay type: ADME, organism-based; set-up: dose 10 mg/kg, route oral; details: in vivo
[4] = Tmax in Beagle dog at 7.85 mg/kg, po; assay type: ADME, organism-based, Canis lupus familiaris; set-up: dose 7.85 mg/kg, route oral; details: in vivo
[5] = Half life in Sprague-Dawley rat at 10 mg/kg, po; details: in vivo
[6] = AUC (0 to infinity) in C57Bl mouse at 10 mg/kg, po; assay type: ADME, organism-based; set-up: time infinity, dose 10 mg/kg, route oral; details: plasma
[7] = Cmax in C57Bl mouse at 10 mg/kg, po; assay type: ADME, organism-based; set-up: dose 10 mg/kg, route oral; details: in vivo
Rattus norvegicus [8] = species on record: Rattus norvegicus; test: Clearance in rat relative to hepatic blood flow; assay type: ADME, organism-based, Liver; details: in vivo
Rattus norvegicus [9] = test: Drug metabolism in po dosed rat assessed as isopropyl 2-hydroxy-4-(5-methoxy-6-(2-methyl-6-(methylsulfonyl)pyridin-3-ylamino)pyrimidin-4-yloxy)piperidine-1-carboxylate formation; assay type: ADME, organism-based; details: in vivo
[10] = Mean residence time in cynomolgus monkey at 10 mg/kg, po; assay type: ADME, organism-based, Macaca fascicularis; set-up: dose 10 mg/kg, route oral; details: in vivo
[11] = Clearance in iv dosed Beagle dog; assay type: ADME, organism-based, Canis lupus familiaris; details: in vivo
Rattus norvegicus [12] = test: Drug metabolism in po dosed rat assessed as 5-methoxy-6-(2-methyl-6-(methylsulfonyl)pyridin-3-ylamino)pyrimidin-4-ol formation; assay type: ADME, organism-based; details: in vivo
Rattus norvegicus [13] = test: Drug concentration in Sprague-Dawley rat measured at initiation of the oral glucose tolerance test at 3 mg/kg; assay type: ADME, organism-based; set-up: dose 3 mg/kg, route oral; details: in vivo
Rattus norvegicus [14] = test: Antidiabetic activity in fasted Sprague-Dawley rat assessed as reduction in AUC of glucose at 3 mg/kg, po administered 30 mins prior glucose challenge by oral glucose tolerance test; assay type: functional, organism-based; set-up: dose 3 mg/kg
[15] = Mean residence time in C57Bl mouse at 10 mg/kg, po; assay type: ADME, organism-based; set-up: dose 10 mg/kg, route oral; details: in vivo
Mus musculus [16] = test: Antidiabetic activity in ob/ob mouse assessed as blood glucose AUC at 3 mg/kg administered 60 mins prior glucose challenge by oral glucose tolerance test relative to vehicle treated control; assay type: functional
[17] = Tmax in Sprague-Dawley rat at 10 mg/kg, po; assay type: ADME, organism-based; set-up: dose 10 mg/kg, route oral; details: in vivo
[18] = Half life in C57Bl mouse at 10 mg/kg, po; details: in vivo
[19] = target: Voltage-gated inwardly rectifying potassium channel KCNH2 (Homo sapiens, UniProt Q12809); test: Inhibition of human ERG
[20] = Half life in rat liver microsomes; assay type: ADME, Microsome
[21] = Clearance in iv dosed Sprague-Dawley rat; assay type: ADME, organism-based; details: in vivo
[22] = Cmax in Beagle dog at 7.85 mg/kg, po; assay type: ADME, organism-based, Canis lupus familiaris; set-up: dose 7.85 mg/kg, route oral; details: in vivo
[23] = Mean residence time in Beagle dog at 7.85 mg/kg, po; assay type: ADME, organism-based, Canis lupus familiaris; set-up: dose 7.85 mg/kg, route oral; details: in vivo
[24] = Tmax in cynomolgus monkey at 10 mg/kg, po; assay type: ADME, organism-based, Macaca fascicularis; set-up: dose 10 mg/kg, route oral; details: in vivo
[25] = AUC (0 to infinity) in cynomolgus monkey at 10 mg/kg, po; assay type: ADME, organism-based, Macaca fascicularis; set-up: time infinity, dose 10 mg/kg, route oral; details: plasma
in vivo = details: beagle, dog, po, 7.85 mg/kg
Description: Half life in Beagle dog at 7.85 mg/kg, po

[26] = Clearance in iv dosed Cynomolgus monkey; assay type: ADME, organism-based, Macaca fascicularis; details: in vivo
Cavia porcellus [27] = test: Toxicity in guinea pig assessed as mean arterial blood pressure change at 5 mg/kg, iv; assay type: organism-based; set-up: dose 5 mg/kg, route intravenous; details: in vivo
Rattus norvegicus [28] = test: Antidiabetic activity in ZDF rat assessed as blood glucose AUC at 3 mg/kg administered 60 mins prior glucose challenge by oral glucose tolerance test relative to vehicle treated control; assay type: functional
[29] = Permeability from apical to basolateral side of human Caco2 cells; assay type: ADME, cell-based; details: Caco-2, read-out: permeability
Rattus norvegicus [30] = test: Antidiabetic activity in Sprague-Dawley rat assessed as blood glucose AUC at 3 mg/kg administered 60 mins prior glucose challenge by oral glucose tolerance test relative to vehicle treated control; assay type: functional
Rattus norvegicus [31] = test: Toxicity in rat assessed as developmental abnormality dosed for 14 days; assay type: organism-based; details: in vivo, 336 h
[32] = Solubility in water at pH 7; assay type: physicochemical; details: buffer
[33] = Elimination half life in dog; details: in vivo
[34] = Solubility in water at pH 2; assay type: physicochemical
[35] = Cmax in cynomolgus monkey at 10 mg/kg, po; assay type: ADME, organism-based, Macaca fascicularis; set-up: dose 10 mg/kg, route oral; details: in vivo
[36] = Permeability from basolateral to apical side of human Caco2 cells; assay type: ADME, cell-based; details: Caco-2, read-out: permeability
Mus musculus [37] = test: Antidiabetic activity in fasted C57bl/6j mouse assessed as reduction in AUC of glucose at 10 mg/kg, po administered 30 mins prior glucose challenge by oral glucose tolerance test; assay type: functional, organism-based; set-up: dose 10 mg/kg
Cavia porcellus [38] = test: Toxicity in guinea pig assessed as change in heart rate at 5 mg/kg, iv; assay type: organism-based; set-up: dose 5 mg/kg, route intravenous; details: in vivo
Rattus norvegicus [39] = test: Drug concentration in ZDF rat measured at initiation of the oral glucose tolerance test at 3 mg/kg; assay type: ADME, organism-based; set-up: dose 3 mg/kg, route oral; details: in vivo
[40] = Elimination half life in rat; details: in vivo
Cynomolgus monkey [41] = test: Drug concentration in cynomolgus monkey measured at initiation of the oral glucose tolerance test at 3 mg/kg; assay type: ADME, organism-based, Macaca fascicularis; set-up: dose 3 mg/kg, route oral; details: in vivo
[42] = Tmax in C57Bl mouse at 10 mg/kg, po; assay type: ADME, organism-based; set-up: dose 10 mg/kg, route oral; details: in vivo
Rattus norvegicus [43] = test: Drug metabolism in po dosed rat assessed as 5-methoxy-N-(2-methyl-6-(methylsulfonyl)pyridin-3-yl)-6-(piperidin-4-yloxy)pyrimidin-4-amine formation; assay type: ADME, organism-based; details: in vivo
Canis familiaris [44] = test: Toxicity in dog assessed as developmental abnormality dosed for 7 days; assay type: organism-based, Canis lupus familiaris; details: in vivo, 168 h
[45] = Half life in cynomolgus monkey at 10 mg/kg, po; details: in vivo
Rattus norvegicus [46] = test: Antidiabetic activity in fasted Sprague-Dawley rat assessed as reduction in AUC of glucose at 30 mg/kg, po administered 30 mins prior glucose challenge by oral glucose tolerance test; assay type: functional, organism-based; set-up: dose 30 mg/kg
Cavia porcellus [47] = test: Toxicity in guinea pig assessed as change in ECG at 5 mg/kg, iv; assay type: organism-based; set-up: dose 5 mg/kg, route intravenous; details: in vivo
Mus musculus [48] = test: Antidiabetic activity in fasted C57bl/6j mouse assessed as reduction in AUC of glucose at 1 mg/kg, po administered 30 mins prior glucose challenge by oral glucose tolerance test; assay type: functional, organism-based; set-up: dose 1 mg/kg
[49] = Half life in human liver microsomes; assay type: ADME, Microsome
Canis familiaris [50] = species on record: Canis familiaris; test: Clearance in dog relative to hepatic blood flow; assay type: ADME, organism-based, Canis lupus familiaris, Liver; details: in vivo
[51] = AUC (0 to infinity) in Beagle dog at 7.85 mg/kg, po; assay type: ADME, organism-based, Canis lupus familiaris; set-up: time infinity, dose 7.85 mg/kg, route oral; details: plasma
[52] = Mean residence time in Sprague-Dawley rat at 10 mg/kg, po; assay type: ADME, organism-based; set-up: dose 10 mg/kg, route oral; details: in vivo
[53] = AUC (0 to infinity) in Sprague-Dawley rat at 10 mg/kg, po; assay type: ADME, organism-based; set-up: time infinity, dose 10 mg/kg, route oral; details: plasma
Cynomolgus monkey [54] = test: Antidiabetic activity in cynomolgus monkey assessed as blood glucose AUC at 3 mg/kg administered 60 mins prior glucose challenge by oral glucose tolerance test relative to vehicle treated control; assay type: functional, Macaca fascicularis
[55] = Half life cynomolgus monkey at 25 to 400 mg administered once daily; assay type: ADME, organism-based, Macaca fascicularis; details: in vivo

Cytochrome P450 2C9, sequence (P11712 whole entry): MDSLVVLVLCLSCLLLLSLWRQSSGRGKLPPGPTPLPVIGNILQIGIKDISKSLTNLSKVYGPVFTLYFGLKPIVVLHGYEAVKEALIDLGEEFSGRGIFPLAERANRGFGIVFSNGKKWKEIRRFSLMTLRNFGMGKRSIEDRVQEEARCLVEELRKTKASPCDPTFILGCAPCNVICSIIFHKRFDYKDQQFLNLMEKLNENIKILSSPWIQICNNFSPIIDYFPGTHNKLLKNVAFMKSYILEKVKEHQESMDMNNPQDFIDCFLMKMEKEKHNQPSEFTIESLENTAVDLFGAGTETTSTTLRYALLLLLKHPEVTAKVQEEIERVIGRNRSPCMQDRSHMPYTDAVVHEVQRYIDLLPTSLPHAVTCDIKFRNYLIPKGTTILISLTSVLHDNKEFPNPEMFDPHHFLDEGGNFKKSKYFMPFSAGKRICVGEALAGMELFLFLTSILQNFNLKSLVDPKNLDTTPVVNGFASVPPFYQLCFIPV
Voltage-gated inwardly rectifying potassium channel KCNH2, sequence (Q12809 whole entry): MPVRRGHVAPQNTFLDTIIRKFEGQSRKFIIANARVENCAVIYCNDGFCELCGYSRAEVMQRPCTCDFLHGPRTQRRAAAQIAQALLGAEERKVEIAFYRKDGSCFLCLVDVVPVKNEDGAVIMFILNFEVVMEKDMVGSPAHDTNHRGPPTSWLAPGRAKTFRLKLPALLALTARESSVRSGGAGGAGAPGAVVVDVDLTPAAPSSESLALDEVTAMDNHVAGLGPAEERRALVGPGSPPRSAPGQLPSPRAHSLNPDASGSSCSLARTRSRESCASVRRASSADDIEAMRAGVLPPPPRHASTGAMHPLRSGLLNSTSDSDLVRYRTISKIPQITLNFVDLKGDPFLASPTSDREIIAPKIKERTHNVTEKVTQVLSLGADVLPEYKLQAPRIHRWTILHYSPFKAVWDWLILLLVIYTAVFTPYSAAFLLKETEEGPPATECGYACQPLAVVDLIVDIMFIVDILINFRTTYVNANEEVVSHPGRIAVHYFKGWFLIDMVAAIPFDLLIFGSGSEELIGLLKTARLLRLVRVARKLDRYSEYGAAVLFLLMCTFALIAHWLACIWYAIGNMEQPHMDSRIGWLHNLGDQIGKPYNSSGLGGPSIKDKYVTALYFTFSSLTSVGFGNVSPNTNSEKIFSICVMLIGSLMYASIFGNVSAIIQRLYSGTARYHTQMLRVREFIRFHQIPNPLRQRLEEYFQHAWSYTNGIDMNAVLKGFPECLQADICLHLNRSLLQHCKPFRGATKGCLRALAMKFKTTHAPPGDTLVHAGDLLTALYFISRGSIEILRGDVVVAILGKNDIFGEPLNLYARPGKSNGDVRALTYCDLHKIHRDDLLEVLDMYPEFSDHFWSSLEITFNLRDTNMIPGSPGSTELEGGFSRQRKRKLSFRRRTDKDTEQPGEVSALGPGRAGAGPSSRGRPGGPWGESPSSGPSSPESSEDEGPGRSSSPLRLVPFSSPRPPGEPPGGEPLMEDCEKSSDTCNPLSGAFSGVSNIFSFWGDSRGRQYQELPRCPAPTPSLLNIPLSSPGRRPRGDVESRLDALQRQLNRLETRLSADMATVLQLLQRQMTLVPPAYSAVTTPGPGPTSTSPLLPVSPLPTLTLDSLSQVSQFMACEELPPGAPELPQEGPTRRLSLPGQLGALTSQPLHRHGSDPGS

solubility at 24 h [1]: 13100 µg/mL (≈ 28.2 mM)
SMILES: Cc1cc(S(C)(=O)=O)ncc1Oc1ncnc(OC2CCN(C(=O)OC(C)C)CC2)c1C

Cmax [3]: 1390 ng/mL
Tmax [4]: 8 h
half-life [5]: 4.3 h
AUC(0-inf) [6]: 320000 ng·h/mL
Cmax [7]: 25800 ng/mL
CL (Rattus norvegicus [8]): 16%
Drug metabolism (Rattus norvegicus [9]): Active
MRT [10]: 8.4 h
clearance [11]: 0.667 mL/min/kg
Drug metabolism (Rattus norvegicus [12]): Active
MRT [15]: 7.9 h
Tmax [17]: 1 h
half-life [18]: 5.9 h
half-life [20]: > 1 h
clearance [21]: 9.67 mL/min/kg
Cmax [22]: 1980 ng/mL
MRT [23]: 10.9 h
Tmax [24]: 6 h
AUC(0-inf) [25]: 64200 ng·h/mL
half-life (in vivo): 10.9 h
clearance [26]: 1.83 mL/min/kg
solubility at 24 h [1]: 33000 µg/mL (≈ 68.8 mM)
Papp A→B [29]: 26 ×10⁻⁶ cm/s
solubility [32]: 110 µg/mL (≈ 0.229 mM)
half-life [33]: 7 h
solubility [34]: 310 µg/mL (≈ 0.646 mM)
Cmax [35]: 4800 ng/mL
Papp B→A [36]: 15 ×10⁻⁶ cm/s
half-life [40]: 3 h
Tmax [42]: 2 h
Drug metabolism (Rattus norvegicus [43]): Active
half-life [45]: 4.4 h
half-life [49]: > 1 h
CL (Canis familiaris [50]): 16%
AUC(0-inf) [51]: 43700 ng·h/mL
IC50 (Cytochrome P450 2C9): 8 µM
MRT [52]: 6.8 h
AUC(0-inf) [53]: 12500 ng·h/mL
SMILES: COc1c(Nc2ccc(S(C)(=O)=O)nc2C)ncnc1OC1CCN(C(=O)OC(C)C)CC1 [ADP-597]
Drug uptake (Rattus norvegicus [13]): 482 ng/mL
Activity (Rattus norvegicus [14]): Active
Activity (Mus musculus [16]): 78.4%
IC50 [19]: > 10 µM
Activity (Cavia porcellus [27]): Non-toxic
Activity (Rattus norvegicus [28]): 72.8%
Activity (Rattus norvegicus [30]): 85.1%
Activity (Rattus norvegicus [31]): Non-toxic
Activity (Mus musculus [37]): Active
Activity (Cavia porcellus [38]): Non-toxic
Drug uptake (Rattus norvegicus [39]): 1592 ng/mL
Drug uptake (Cynomolgus monkey [41]): 112 ng/mL
Activity (Canis familiaris [44]): Non-toxic
Activity (Rattus norvegicus [46]): Active
Activity (Cavia porcellus [47]): Non-toxic
Activity (Mus musculus [48]): Active
Activity (Cynomolgus monkey [54]): 82.8%

solubility at 24 h [1]: 3300 µg/mL (≈ 6.69 mM)
SMILES: CCOc1c(Nc2ccc(S(C)(=O)=O)nc2C)ncnc1OC1CCN(C(=O)OC(C)C)CC1

solubility at 24 h [1]: 17300 µg/mL (≈ 34.6 mM)
SMILES: Cc1nc(S(C)(=O)=O)ccc1Nc1ncnc(OC2CCN(C(=O)OC(C)C)CC2)c1C(F)F

solubility at 24 h [2]: 7700 µg/mL (≈ 20 mM)
SMILES: Cc1ncccc1Nc1ncnc(OC2CCN(C(=O)OC(C)C)CC2)c1C

Further lines, the compound ahead of its results:

SMILES: Cc1c(Oc2ccc(S(C)(=O)=O)cc2F)ncnc1OC1CCN(C(=O)OC(C)C)CC1
solubility at 24 h [2]: 1100 µg/mL (≈ 2.35 mM)
solubility at 24 h [1]: 1100 µg/mL (≈ 2.35 mM)
IC50 (Cytochrome P450 2C9): 5.3 µM

SMILES: CC(CO)OC(=O)N1CCC(Oc2ncnc3c2cnn3-c2ccc(S(C)(=O)=O)cc2F)CC1 (configuration not stated)
half-life [55]: 41 h

SMILES: Cc1nc(S(C)(=O)=O)ccc1Nc1ncnc(OC2CCN(C(=O)OC(C)C)CC2)c1C#N
solubility at 24 h [1]: 17000 µg/mL (≈ 35.8 mM)

SMILES: Cc1c(Oc2cncc(F)c2)ncnc1OC1CCN(C(=O)OC(C)C)CC1
solubility at 24 h [1]: 5100 µg/mL (≈ 13.1 mM)

SMILES: Cc1cc(S(C)(=O)=O)ncc1Nc1ncnc(OC2CCN(C(=O)OC(C)C)CC2)c1C
solubility at 24 h [1]: 20400 µg/mL (≈ 44 mM)

SMILES: Cc1c(Nc2ccc(S(C)(=O)=O)cc2F)ncnc1OC1CCN(C(=O)OC(C)C)CC1
solubility at 24 h [2]: 16700 µg/mL (≈ 35.8 mM)
